According to US20040057908A1, “Oral compositions and use thereof” (priority 2003, published 2004):
≈ marks a conversion by molar mass, not a printed value. Where two headings read alike, the source gives them in different places. Values belong to the molecule of their own block, whether it stands above or below them.

Columns and labels:
GTF B [1] = molecular target: T1, GTF B (Streptococcus mutans serotype c, UniProt P08987); assay: GTF activity in solution, GTF B; assay type: biochemical; details: mean (SD)
T1 construct: made in house; host or cells: Streptococcus milleri KSB8 (culture supernatant)
Protocol: (§1) Glucosyltransferase activity was measured by the incorporation of [^14C-glucose] from labeled sucrose (NEN Research Products, Boston, Mass.) into glucans (Germaine et al., 1974; Venkitaraman et al., 1995). The GTF enzyme added to each sample for all assays was equivalent to the amount required to incorporate 1.0-1.5 μmol of glucose over the four hours reaction (1.0-1.5 units).
(§2) For solution assays, purified GTF B, C, D and Ss were mixed with a two-fold dilution series of the test compounds (concentration ranging from 125 to 500 μM) and incubated with [^14C-glucose]-sucrose substrate (0.2 μCi/ml) (200.0 mmol/l sucrose, 40 μmol/l dextran 9000, 0.02% sodium azide in adsorption buffer—50 mM KCl, 1.0 mM KPO4, 1.0 mM CaCl2, 0.1 mM MgCl2−pH=6.5) to reach a final concentration of 100 mmol/l sucrose (200 μl final volume). For the control, the same reaction was carried out, where ethanol:DMSO (final concentration of 7.5% and 1.25%, v/v) or ethanol (final concentration of 5%, v/v) replaced the test agent solutions. The samples were incubated 37° C. with rocking for 4 h. After incubation, ice-cold ethanol (1.0 ml) was added and the samples were stored for 18 h, 4° C. for precipitation of glucans. Radiolabeled glucan was determined by scintillation counting (Germaine et al., 1974; Venkitaraman et al., 1995).

GTF B [2] = molecular target: T1, GTF B; assay: GTF activity adsorbed onto saliva-coated hydroxyapatite (sHA) surface, GTF B; assay type: biochemical; details: mean (SD)
Protocol: as §1
(§3) For surface assays, the GTFs were adsorbed to hydroxyapatite beads coated with clarified whole saliva (free of GTF activity), as detailed elsewhere (Koo et al., 2000c; Schilling and Bowen, 1988, Venkitaraman et al., 1995). The saliva-coated hydroxyapatite (sHA) beads were exposed to sufficient enzyme to saturate the surface as determined experimentally. Following the adsorption of the enzyme, the beads were washed 3 times with buffer to remove the loosely bound material and exposed to 300 μl of the two-fold dilution series of test compounds (or control) for 30 min. at the same concentrations described above. The beads were washed and exposed to 300 μl [^14C-glucose]-sucrose substrate (100.0 mmol/l sucrose, final concentration). The radiolabeled glucan formed was collected and quantified by scintillation counting (Germaine et al., 1974; Venkitaraman et al., 1995). All the solution and surface assays were done in quadruplicate in at least 3 different experiments.

GTF C [3] = molecular target: T2, GTF C (Streptococcus mutans serotype c, UniProt P13470); assay: GTF activity in solution, GTF C; assay type: biochemical; details: mean (SD)
T2 construct: The supernatant was carefully collected as the source of GTF C; made in house; host or cells: Streptococcus mutans WHB 410 (endogenous gtfC; urea/Triton extract of washed cells, hydroxyapatite chromatography)
Protocol: as §1, §2

GTF C [4] = molecular target: T2, GTF C; assay: GTF activity adsorbed onto sHA surface, GTF C; assay type: biochemical; details: mean (SD)
Protocol: as §1, §3

GTF D [5] = molecular target: T3, GTF D (Streptococcus mutans serotype c, UniProt P49331); assay: GTF activity in solution, GTF D; assay type: biochemical; details: mean (SD)
T3 construct: made in house; host or cells: Streptococcus milleri NH5 (culture supernatant)
Protocol: as §1, §2

GTF D [6] = molecular target: T3, GTF D; assay: GTF activity adsorbed onto sHA surface, GTF D; assay type: biochemical; details: mean (SD)
Protocol: as §1, §3

GTF Ss [7] = molecular target: T4, GTF Ss (Streptococcus sanguinis, UniProt A3CLJ9); assay: GTF activity in solution, GTF Ss; assay type: biochemical, S. sanguinis; details: mean (SD)
Protocol: as §1, §2

GTF Ss [8] = molecular target: T4, GTF Ss; assay: GTF activity adsorbed onto sHA surface, GTF Ss; assay type: biochemical, S. sanguinis; details: mean (SD)
Protocol: as §1, §3

[9] = test system: Streptococcus mutans GS-5; assay: MIC and MBC, broth dilution; assay type: cell-based
Protocol: (§4) The minimum inhibitory concentration (MIC) and minimum bactericidal concentration (MBC) were determined for each test compound according to the National Committee for Clinical Laboratory Standards guidelines (Tentative standard M26-T, 1992; NCCLS Publication No. M7-A5, 2000) and Koo et al. (2000b). The broth microdilution and macrodilution methods (in TSB) were used for the antibacterial tests. The starting inoculum was 5×10^5 CFU/ml and the concentrations of test compounds ranged from 15.6 to 500 μM (two-fold dilutions). The MICs and MBCs were determined in quadruplicate in at least 3 different experiments.

[10] = test system: Streptococcus mutans UA 159; assay: MIC and MBC, broth dilution; assay type: cell-based
Protocol: as §4

[11] = test system: Streptococcus sobrinus 6715; assay: MIC and MBC, broth dilution; assay type: cell-based
Protocol: as §4

[12] = test system: Mutans Streptococci Strains; assay: MIC and MBC, broth dilution, all strains stated together; assay type: cell-based, S. mutans (GS-5 and UA159) and S. sobrinus 6715
Protocol: as §4

streptococcal GTFs = test system: T5, streptococcal GTFs; assay: GTF activity in solution, all GTFs (B, C, D, Ss) stated together; assay type: biochemical, Streptococcus mutans, S. sanguinis; details: 125 to 500 μM; solution and surface not told apart
T5 construct: Streptococcus milleri KSB8, which harbors the gtfB gene from S. mutans GS-5 (for GTF B production)
Protocol: The GTF enzyme added to each sample for all assays was equivalent to the amount required to incorporate 1.0-1.5 μmol of glucose over the four hours reaction (1.0-1.5 units).
The samples were incubated 37° C. with rocking for 4 h.
For this assay, a one-way layout experimental design was used in 4×2×7 factorial scheme (enzyme×state×dose). An analysis of variance was carried out and qualitative treatments were compared using Tukey test at level of 5% of significance (p<0.05). A non-linear regression was applied in order to evaluate effects of different concentrations.

[13] = all strains tested (S. mutans GS-5, UA159, S. sobrinus 6715), read-out: MIC
[14] = Streptococcus mutans, all strains tested (S. mutans GS-5, UA159, S. sobrinus 6715), read-out: MIC

T1 sequence (P08987 35-1476): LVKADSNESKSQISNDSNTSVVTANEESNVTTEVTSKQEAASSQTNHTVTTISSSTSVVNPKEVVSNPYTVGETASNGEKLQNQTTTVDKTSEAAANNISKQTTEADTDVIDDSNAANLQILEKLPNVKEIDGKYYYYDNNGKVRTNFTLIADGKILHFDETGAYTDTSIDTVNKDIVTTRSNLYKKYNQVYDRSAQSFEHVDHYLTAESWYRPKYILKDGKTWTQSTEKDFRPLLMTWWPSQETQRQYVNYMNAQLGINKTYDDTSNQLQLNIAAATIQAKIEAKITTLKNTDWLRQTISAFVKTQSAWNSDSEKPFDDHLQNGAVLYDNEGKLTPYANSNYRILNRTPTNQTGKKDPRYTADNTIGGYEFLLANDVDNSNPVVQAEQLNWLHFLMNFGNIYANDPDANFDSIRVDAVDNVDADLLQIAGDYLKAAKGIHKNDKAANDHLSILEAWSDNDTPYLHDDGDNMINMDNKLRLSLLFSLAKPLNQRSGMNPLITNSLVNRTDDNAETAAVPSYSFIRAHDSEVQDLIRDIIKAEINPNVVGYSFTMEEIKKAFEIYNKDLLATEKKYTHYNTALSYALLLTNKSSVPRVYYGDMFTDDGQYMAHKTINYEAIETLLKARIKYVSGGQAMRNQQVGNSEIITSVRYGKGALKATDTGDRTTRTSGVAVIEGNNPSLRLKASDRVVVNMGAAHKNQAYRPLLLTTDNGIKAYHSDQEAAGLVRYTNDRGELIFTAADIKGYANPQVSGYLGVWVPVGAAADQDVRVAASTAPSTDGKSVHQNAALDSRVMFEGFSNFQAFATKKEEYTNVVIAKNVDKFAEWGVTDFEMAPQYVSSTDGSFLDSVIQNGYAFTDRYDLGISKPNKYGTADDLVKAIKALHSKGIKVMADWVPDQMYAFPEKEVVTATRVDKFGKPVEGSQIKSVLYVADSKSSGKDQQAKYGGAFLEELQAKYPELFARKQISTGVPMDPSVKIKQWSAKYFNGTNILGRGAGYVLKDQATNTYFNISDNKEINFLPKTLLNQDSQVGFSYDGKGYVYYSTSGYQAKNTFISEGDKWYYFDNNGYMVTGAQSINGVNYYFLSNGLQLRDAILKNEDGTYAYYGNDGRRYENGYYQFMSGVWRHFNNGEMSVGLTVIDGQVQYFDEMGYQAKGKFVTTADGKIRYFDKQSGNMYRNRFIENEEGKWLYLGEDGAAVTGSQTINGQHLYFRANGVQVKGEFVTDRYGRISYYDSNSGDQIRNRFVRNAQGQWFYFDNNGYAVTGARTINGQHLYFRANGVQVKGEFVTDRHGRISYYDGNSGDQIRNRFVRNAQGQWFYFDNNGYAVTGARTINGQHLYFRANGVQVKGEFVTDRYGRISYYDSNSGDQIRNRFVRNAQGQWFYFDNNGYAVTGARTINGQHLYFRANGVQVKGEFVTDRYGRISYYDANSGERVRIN
T2 sequence (P13470 35-1455): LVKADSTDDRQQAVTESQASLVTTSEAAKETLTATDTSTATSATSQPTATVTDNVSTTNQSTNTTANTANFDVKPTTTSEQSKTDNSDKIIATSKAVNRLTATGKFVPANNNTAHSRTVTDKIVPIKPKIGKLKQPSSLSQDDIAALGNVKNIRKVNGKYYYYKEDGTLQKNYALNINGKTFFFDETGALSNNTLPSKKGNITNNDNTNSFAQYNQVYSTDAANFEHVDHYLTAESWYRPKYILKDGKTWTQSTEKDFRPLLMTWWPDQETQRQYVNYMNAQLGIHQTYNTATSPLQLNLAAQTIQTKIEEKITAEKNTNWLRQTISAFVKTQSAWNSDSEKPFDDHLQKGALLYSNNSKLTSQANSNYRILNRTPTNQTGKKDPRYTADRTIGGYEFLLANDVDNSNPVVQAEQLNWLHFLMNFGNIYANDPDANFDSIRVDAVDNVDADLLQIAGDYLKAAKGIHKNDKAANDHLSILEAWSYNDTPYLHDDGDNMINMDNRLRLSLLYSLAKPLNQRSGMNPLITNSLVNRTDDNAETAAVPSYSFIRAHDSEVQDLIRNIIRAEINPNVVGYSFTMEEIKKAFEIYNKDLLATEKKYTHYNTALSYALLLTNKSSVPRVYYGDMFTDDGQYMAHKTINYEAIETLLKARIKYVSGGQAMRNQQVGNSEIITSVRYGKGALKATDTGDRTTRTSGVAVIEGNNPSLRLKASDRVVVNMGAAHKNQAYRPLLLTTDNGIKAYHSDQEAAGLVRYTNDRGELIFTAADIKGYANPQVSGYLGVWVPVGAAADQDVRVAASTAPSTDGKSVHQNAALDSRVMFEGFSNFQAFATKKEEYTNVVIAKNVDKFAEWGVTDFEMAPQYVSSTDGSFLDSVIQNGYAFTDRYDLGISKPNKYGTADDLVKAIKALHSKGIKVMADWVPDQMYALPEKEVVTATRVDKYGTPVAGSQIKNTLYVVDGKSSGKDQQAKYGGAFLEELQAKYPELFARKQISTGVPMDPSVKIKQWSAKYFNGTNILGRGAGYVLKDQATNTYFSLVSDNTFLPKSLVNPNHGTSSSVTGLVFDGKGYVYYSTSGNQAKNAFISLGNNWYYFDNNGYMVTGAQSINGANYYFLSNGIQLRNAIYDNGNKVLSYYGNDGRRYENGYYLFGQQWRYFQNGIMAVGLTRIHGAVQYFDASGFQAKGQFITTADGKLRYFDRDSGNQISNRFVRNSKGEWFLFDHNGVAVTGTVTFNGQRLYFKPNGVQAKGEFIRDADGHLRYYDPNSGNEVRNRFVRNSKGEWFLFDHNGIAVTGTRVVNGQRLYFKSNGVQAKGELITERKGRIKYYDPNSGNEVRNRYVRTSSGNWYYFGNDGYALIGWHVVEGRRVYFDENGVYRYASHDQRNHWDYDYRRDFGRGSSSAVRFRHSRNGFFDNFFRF
T3 sequence (P49331 whole entry): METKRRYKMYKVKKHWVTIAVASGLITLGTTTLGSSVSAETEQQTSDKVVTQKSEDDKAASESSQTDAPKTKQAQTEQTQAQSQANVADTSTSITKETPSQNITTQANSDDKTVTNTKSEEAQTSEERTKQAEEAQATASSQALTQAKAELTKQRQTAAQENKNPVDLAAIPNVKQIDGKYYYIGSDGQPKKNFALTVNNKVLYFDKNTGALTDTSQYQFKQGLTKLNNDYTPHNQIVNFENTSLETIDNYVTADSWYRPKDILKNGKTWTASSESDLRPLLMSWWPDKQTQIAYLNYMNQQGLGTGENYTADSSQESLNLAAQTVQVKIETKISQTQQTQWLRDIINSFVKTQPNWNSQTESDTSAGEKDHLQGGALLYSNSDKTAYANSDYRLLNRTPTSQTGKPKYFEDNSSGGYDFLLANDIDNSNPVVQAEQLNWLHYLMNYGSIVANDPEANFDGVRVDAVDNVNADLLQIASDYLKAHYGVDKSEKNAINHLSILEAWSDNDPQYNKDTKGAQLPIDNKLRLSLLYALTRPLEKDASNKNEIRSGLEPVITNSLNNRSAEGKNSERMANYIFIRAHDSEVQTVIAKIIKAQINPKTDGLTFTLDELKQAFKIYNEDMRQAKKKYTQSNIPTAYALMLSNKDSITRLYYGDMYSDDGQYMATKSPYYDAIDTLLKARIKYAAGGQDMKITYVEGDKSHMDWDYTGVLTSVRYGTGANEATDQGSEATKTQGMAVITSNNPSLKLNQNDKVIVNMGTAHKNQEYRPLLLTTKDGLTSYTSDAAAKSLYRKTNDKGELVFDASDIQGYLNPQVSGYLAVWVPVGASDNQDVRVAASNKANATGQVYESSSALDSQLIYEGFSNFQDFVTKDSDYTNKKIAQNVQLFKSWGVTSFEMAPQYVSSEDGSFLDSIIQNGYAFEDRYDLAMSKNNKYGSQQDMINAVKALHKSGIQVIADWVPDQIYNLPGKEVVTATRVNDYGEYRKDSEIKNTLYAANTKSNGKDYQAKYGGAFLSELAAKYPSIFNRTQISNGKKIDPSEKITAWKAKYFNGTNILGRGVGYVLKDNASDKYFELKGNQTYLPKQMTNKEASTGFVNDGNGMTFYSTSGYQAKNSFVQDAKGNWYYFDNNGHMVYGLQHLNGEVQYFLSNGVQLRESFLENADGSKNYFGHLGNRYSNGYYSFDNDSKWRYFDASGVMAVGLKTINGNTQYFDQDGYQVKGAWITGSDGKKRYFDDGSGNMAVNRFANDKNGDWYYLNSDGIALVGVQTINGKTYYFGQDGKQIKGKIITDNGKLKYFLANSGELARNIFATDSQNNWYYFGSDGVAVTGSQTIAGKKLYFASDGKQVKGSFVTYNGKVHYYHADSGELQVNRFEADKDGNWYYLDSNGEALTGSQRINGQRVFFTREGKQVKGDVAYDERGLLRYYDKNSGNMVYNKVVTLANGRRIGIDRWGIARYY

SMILES: CC(=O)O[C@H]1C(=O)c2c(O)cc(O)cc2O[C@@H]1c1ccccc1 [Pinobanksin-3-acetate]
- GTF B sol. % of Inhib. (GTF B [1]; 125 μM): 0.0 (0.8) %
- GTF B sol. % of Inhib. (GTF B [1]; 250 μM): 7.7 (3.5) %
- GTF B sol. % of Inhib. (GTF B [1]; 500 μM): 18.9 (2.8) %
- GTF B surf. % of Inhib. (GTF B [2]; 125 μM): 9.4 (4.8) %
- GTF B surf. % of Inhib. (GTF B [2]; 250 μM): 7.3 (2.1) %
- GTF B surf. % of Inhib. (GTF B [2]; 500 μM): 10.3 (3.5) %
- GTF C sol. % of Inhib. (GTF C [3]; 125 μM): 0.0 (0.0) %
- GTF C sol. % of Inhib. (GTF C [3]; 250 μM): 3.5 (4.2) %
- GTF C sol. % of Inhib. (GTF C [3]; 500 μM): 16.7 (4.3) %
- GTF C surf. % of Inhib. (GTF C [4]; 125 μM): 0.0 (0.1) %
- GTF C surf. % of Inhib. (GTF C [4]; 250 μM): 0.0 (0.0) %
- GTF C surf. % of Inhib. (GTF C [4]; 500 μM): 0.0 (3.3) %
- GTF D sol. % of Inhib. (GTF D [5]; 125 μM): 5.5 (4.5) %
- GTF D sol. % of Inhib. (GTF D [5]; 250 μM): 2.7 (3.3) %
- GTF D sol. % of Inhib. (GTF D [5]; 500 μM): 3.5 (2.1) %
- GTF D surf. % of Inhib. (GTF D [6]; 125 μM): 0.0 (0.0) %
- GTF D surf. % of Inhib. (GTF D [6]; 250 μM): 4.5 (2.0) %
- GTF D surf. % of Inhib. (GTF D [6]; 500 μM): 10.1 (2.8) %
- GTF Ss sol. % of Inhib. (GTF Ss [7]; 125 μM): 4.6 (5.7) %
- GTF Ss sol. % of Inhib. (GTF Ss [7]; 250 μM): 22.8 (3.6) %
- GTF Ss sol. % of Inhib. (GTF Ss [7]; 500 μM): 30.5 (7.2) %
- GTF Ss surf. % of Inhib. (GTF Ss [8]; 125 μM): 0.0 (0.6) %
- GTF Ss surf. % of Inhib. (GTF Ss [8]; 250 μM): 0.0 (2.7) %
- GTF Ss surf. % of Inhib. (GTF Ss [8]; 500 μM): 9.9 (5.9) %
- MBC [9]: >500 µM
- MIC [9]: 500 µM (≈ 157 µg/mL)
- MBC [10]: >500 µM
- MIC [10]: 500 µM (≈ 157 µg/mL)
- MBC ([11]; Streptococcus sobrinus 6715): >500 µM
- MIC ([11]; Streptococcus sobrinus 6715): 250 µM (≈ 78.6 µg/mL)
- MIC ([12]; all strains tested): 157 µg/mL
- MIC [12, 13]: 500 µM

SMILES: O=C1C[C@@H](c2ccccc2)Oc2cc(O)cc(O)c21 [Pinocembrin]
- GTF B sol. % of Inhib. (GTF B [1]; 125 μM): 3.7 (5.2) %
- GTF B sol. % of Inhib. (GTF B [1]; 250 μM): 7.2 (1.6) %
- GTF B sol. % of Inhib. (GTF B [1]; 500 μM): 15.9 (4.7) %
- GTF B surf. % of Inhib. (GTF B [2]; 125 μM): 0.7 (3.3) %
- GTF B surf. % of Inhib. (GTF B [2]; 250 μM): 8.8 (4.3) %
- GTF B surf. % of Inhib. (GTF B [2]; 500 μM): 18.9 (5.4) %
- GTF C sol. % of Inhib. (GTF C [3]; 125 μM): 0.0 (0.7) %
- GTF C sol. % of Inhib. (GTF C [3]; 250 μM): 8.5 (3.2) %
- GTF C sol. % of Inhib. (GTF C [3]; 500 μM): 17.2 (4.2) %
- GTF C surf. % of Inhib. (GTF C [4]; 125 μM): 0.0 (0.0) %
- GTF C surf. % of Inhib. (GTF C [4]; 250 μM): 0.4 (0.1) %
- GTF C surf. % of Inhib. (GTF C [4]; 500 μM): 13.5 (4.9) %
- GTF D sol. % of Inhib. (GTF D [5]; 125 μM): 1.5 (0.1) %
- GTF D sol. % of Inhib. (GTF D [5]; 250 μM): 4.8 (2.7) %
- GTF D sol. % of Inhib. (GTF D [5]; 500 μM): 14.9 (4.2) %
- GTF D surf. % of Inhib. (GTF D [6]; 125 μM): 0.0 (0.7) %
- GTF D surf. % of Inhib. (GTF D [6]; 250 μM): 8.2 (2.7) %
- GTF D surf. % of Inhib. (GTF D [6]; 500 μM): 15.5 (6.2) %
- GTF Ss sol. % of Inhib. (GTF Ss [7]; 125 μM): 25.7 (4.1) %
- GTF Ss sol. % of Inhib. (GTF Ss [7]; 250 μM): 32.6 (6.8) %
- GTF Ss sol. % of Inhib. (GTF Ss [7]; 500 μM): 45.7 (8.3) %
- GTF Ss surf. % of Inhib. (GTF Ss [8]; 125 μM): 0.0 (0.2) %
- GTF Ss surf. % of Inhib. (GTF Ss [8]; 250 μM): 0.0 (4.2) %
- GTF Ss surf. % of Inhib. (GTF Ss [8]; 500 μM): 10.5 (2.7) %
- MBC [9]: >500 µM
- MIC [9]: 250 µM (≈ 64.1 µg/mL)
- MBC [10]: >500 µM
- MIC [10]: 250 µM (≈ 64.1 µg/mL)
- MBC ([11]; S. sobrinus 6715): 128 µg/mL
- MBC ([11]; Streptococcus sobrinus 6715): 500 µM
- MIC ([11]; Streptococcus sobrinus 6715): 250 µM (≈ 64.1 µg/mL)
- MIC ([12]; all strains tested): 64 µg/mL
- MIC [12, 13]: 250 µM

SMILES: O=C(O)c1ccc(O)c(O)c1 [Protocatechuic acid]
- effects on GTF enzymes (in words) (streptococcal GTFs): enhanced
- MIC ([12]; Streptococcus mutans): > 500 µM

SMILES: COc1cc(O)c2c(c1)O[C@H](c1ccc(O)cc1)CC2=O [Sakuranetin]
- MBC [9]: >500 µM
- MIC [9]: >500 µM
- MBC [10]: >500 µM
- MIC [10]: >500 µM
- MBC ([11]; Streptococcus sobrinus 6715): >500 µM
- MIC ([11]; Streptococcus sobrinus 6715): 500 µM (≈ 143 µg/mL)

SMILES: COc1cc(C=O)cc(OC)c1O [Syringaldehyde]
- MIC ([12]; Streptococcus mutans): > 500 µM

- MIC [12, 14]: > 500 µM
SMILES: COc1cc(C=O)ccc1O [Vanillin]

- MIC [12, 14]: > 500 µM
SMILES: O=C(O)/C=C/c1ccc(O)cc1 [p-Coumaric acid]
